Experimental data: paper PMC11767929 (Molecules, 2025)
Where two headings read alike, the source gives them in different places.

Tests used:
Assay type in all cases: cell-based
[1] = tested on: HCT 116 (human colorectal cancer cell line); assay: MTT cytotoxicity assay, HCT 116 cells; details: for IC50: read-out: IC50 HCT 116; for SI (HCT 116): selectivity index: ratio of IC50 NHDF-Neo to IC50 HCT 116
Description: (§1) Cytotoxicity screening of the obtained glycoconjugates, their potential metabolites, and substrates used for their synthesis was conducted using the MTT assay.
(§2) All cells were kept in a humidified incubator at 37 °C in a 5% CO2 atmosphere.
(§3) Cell viability was assessed by the MTT (3-[4,5–dimethylthiazol-2-yl]-2,5-diphenyltetrazolium bromide) test (ACROS Organics). Stock solutions of tested compounds were prepared in DMSO and stored accordingly.
(§4) Cells treated with glycoconjugates or potential metabolites were incubated for another 24–72 h (depending on the cell line). Subsequently, 50 µL MTT solution (0.5 mg/mL) in RPMI medium without Phenol Red was added to each well. After 3 h of incubation, the MTT solution was removed, and the precipitated formazan was dissolved in 100 µL of DMSO. Finally, the absorbance of the solubilized formazan crystals was measured at the 570 nm wavelength. Each experiment was carried out in three independent iterations with four technical repetitions. […] Cell viability was expressed as:Cell viability (%) = (ODsample − ODblank)/(ODcontrol − ODblank) × 100%.

[2] = tested on: MCF-7 (human breast adenocarcinoma cell line); assay: MTT cytotoxicity assay, MCF-7 cells; details: for IC50: Homo sapiens, read-out: IC50 MCF-7; for SI (MCF-7): selectivity index: ratio of IC50 NHDF-Neo to IC50 MCF-7
Description: as §1, §2, §3, §4

[3] = tested on: NHDF-Neo (normal human dermal fibroblast-neonatal cells); assay: MTT cytotoxicity assay, NHDF-Neo healthy cells; details: read-out: IC50 NHDF-Neo
Description: as §1, §2, §3, §4

[4] = tested on: HCT 116 (human colorectal cancer cell line); assay: MTT assay in medium with 20 µM CuCl2, HCT 116 cells; details: addition of CuCl2 at 20 µM; for IC50: Homo sapiens, HCT-116, MTT assay, 24 h, read-out: IC50 HCT 116 + Cu2+; for SI (HCT 116) + Cu2+: ratio of IC50 NHDF-Neo to IC50 HCT 116
Description: (§5) Therefore, it seemed reasonable to conduct additional experiments for the glycoconjugates for which the likely mechanism of action is based on the chelation of metal ions. Since copper can be toxic to cells, it was necessary to test the toxicity of different concentrations of copper salt on the proliferation of all cell line types. Cell cultures under standard conditions were treated with copper solutions of various concentrations, and their effect on cell proliferation was verified by the MTT assay. Cells with the non-supplemented medium were used as a reference for 100% cell viability. […] The antiproliferative activities of 8-AQ glycoconjugates were further tested in the presence of the addition of Cu^2+ ions. HCT 116, MCF-7, and NHDF-Neo cells were treated with solutions of glycoconjugates 13–18 in a culture medium supplemented with 20 µM copper chloride, and their proliferation was measured using the MTT assay. The control consisted of cells cultured in a medium with the same concentration of copper salt added. […] This effect was more pronounced for the MCF-7 cell line (Figure 2). A significant decrease in MCF-7 cell proliferation was observed after treatment with glycoconjugates at concentrations of 100 µM and 50 µM in the presence of Cu^2+ compared to treatment with glycoconjugates alone (cell viability 2–23% and 6–79%, respectively, for each glycoconjugate concentration).
(§6) Cells were seeded in 96-well plates at a concentration of 1 × 10^4 (HCT 116, NHDF-Neo) or 5 × 10^3 (MCF-7) per well. Cell cultures were incubated for 24 h at 37 °C in a humidified atmosphere with 5% CO2. The culture medium was then removed and replaced with 100 µL of the tested compounds solution at varying concentrations (from 25 µM to 200 µM) in the medium with the addition of CuCl2. The final concentration of CuCl2 was 20 µM in each well. Following 24 or 72 h of incubation, the MTT assay was performed to assess cell viability.

[5] = tested on: MCF-7 (human breast adenocarcinoma cell line); assay: MTT assay in medium with 20 µM CuCl2, MCF-7 cells; details: for IC50: Homo sapiens, MCF7, MTT assay, 72 h, read-out: IC50 MCF-7 + Cu2+; for IC50 / SI (MCF-7) + Cu2+: addition of CuCl2 at 20 µM; for SI (MCF-7) + Cu2+: ratio of IC50 NHDF-Neo to IC50 MCF-7; for increase of cytotoxicity in the presence of Cu(II) ions versus without copper: MCF-7 cells, 20 µM CuCl2
Description: as §5, §6

[6] = tested on: NHDF-Neo (normal human dermal fibroblast-neonatal cells); assay: MTT assay in medium with 20 µM CuCl2, NHDF-Neo cells; details: addition of CuCl2 at 20 µM, 24 h, read-out: IC50 NHDF-Neo + Cu2+
Description: as §5, §6

[7] = Homo sapiens, HCT-116, 24 h, MTT assay, incubation time 24 h
[8] = MCF7, MTT assay, incubation time 72 h
[9] = MTT assay, incubation time 24 h

Row | Compound | IC50 [1, 7] | SI (HCT 116) [1] | IC50 [2, 8] | SI (MCF-7) [2] | IC50 [3, 9] | further results
1 | CC(=O)OC[C@H]1O[C@@H](n2cc(COc3cccc4cccnc34)nn2)[C@H](OC(C)=O)[C@@H](OC(C)=O)[C@@H]1OC(C)=O [Compound 13a, reference compound] | 69 ± 2.5 µM | 0.8 | 57.7 ± 3.3 µM | 1.0 | 57.4 ± 3.2 µM | 
2 | CC(=O)OC[C@H]1O[C@@H](OCc2cn(CCCNc3cccc4cccnc34)nn2)[C@H](OC(C)=O)[C@@H](OC(C)=O)[C@@H]1OC(C)=O [Compound 17] | 116 ± 5.9 µM | 3.6 | 78.1 ± 9.3 µM | 5.3 | 416 ± 12.4 µM | IC50 [4]: 71.9 ± 1.7 µM; SI (HCT 116) + Cu2+ [4]: >2.8; IC50 [5]: 34.8 ± 0.7 µM; SI (MCF-7) + Cu2+ [5]: >5.7; CC50 [6]: > 200 µM
3 | [N-]=[N+]=NCCCNc1cccc2cccnc12 [Compound 5, N-(3-azidopropyl)quinolin-8-amine] | 115 ± 13.4 µM |  | 47.1 ± 8.49 µM |  | 415 ± 10.6 µM | 
4 | OCc1cn(CCCOc2cccc3cccnc23)nn1 [Compound 20a, reference compound] | > 800 µM |  | 602.9 ± 1.9 µM | >1.3 | > 800 µM | 
5 | Nc1cccc2cccnc12 [Compound 1, 8-Aminoquinoline, reference compound] |  |  |  |  |  | IC50 ([1]; Homo sapiens, HCT-116, 24 h): > 800 µM; IC50 ([2]; MCF7, 72 h): > 400 µM; IC50 ([3]; 24 h): > 800 µM
6 | CC(=O)OC[C@H]1O[C@@H](OCCn2cc(CNc3cccc4cccnc34)nn2)[C@H](OC(C)=O)[C@@H](OC(C)=O)[C@@H]1OC(C)=O [Compound 15] | 284.2 ± 2.3 µM | >2.8 | 103 ± 5.7 µM | >7.8 | > 800 µM | IC50 [4]: 80.5 ± 2.2 µM; SI (HCT 116) + Cu2+ [4]: >2.5; IC50 [5]: 34.1 ± 5 µM; SI (MCF-7) + Cu2+ [5]: >5.9; CC50 [6]: > 200 µM
7 | OCCn1cc(CNc2cccc3cccnc23)nn1 [Compound 19] |  | >1.2 | 116 ± 2.7 µM | >6.9 | > 800 µM | 
8 | C#CCO[C@@H]1O[C@H](COC(C)=O)[C@H](OC(C)=O)[C@H](OC(C)=O)[C@H]1OC(C)=O [Compound 12, propargyl 2,3,4,6-tetra-O-acetyl-β-D-galactopyranoside] | > 800 µM |  | > 800 µM |  | > 800 µM | 
9 | CC(=O)OC[C@H]1O[C@@H](n2cc(COc3cccc4cccnc34)nn2)[C@H](OC(C)=O)[C@@H](OC(C)=O)[C@H]1OC(C)=O [Compound 14a, reference compound] | 22.7 ± 1.6 µM | 1.4 | 4.1 ± 0.03 µM | 7.8 | 31.9 ± 1.6 µM | 
10 | C#CCNc1cccc2cccnc12 [Compound 3, N-(prop-2-yn-1-yl)quinolin-8-amine] | 550 ± 16.4 µM |  | 295 ± 8.49 µM |  | > 800 µM | 
11 | CC(=O)OC[C@H]1O[C@@H](OCc2cn(CCCNc3cccc4cccnc34)nn2)[C@H](OC(C)=O)[C@@H](OC(C)=O)[C@H]1OC(C)=O [Compound 18] | 182 ± 15.6 µM | 3.2 | 96.8 ± 6 µM | 6.0 | 585 ± 7.1 µM | IC50 [4]: 43.4 ± 2.4 µM; SI (HCT 116) + Cu2+ [4]: >4.6; IC50 [5]: 35.4 ± 0.1 µM; SI (MCF-7) + Cu2+ [5]: >5.6; CC50 [6]: > 200 µM
12 | CC(=O)OC[C@H]1O[C@@H](n2cc(CNc3cccc4cccnc34)nn2)[C@H](OC(C)=O)[C@@H](OC(C)=O)[C@@H]1OC(C)=O [Compound 13] | > 800 µM |  | > 800 µM |  | > 800 µM | IC50 [4]: 118 ± 5 µM; SI (HCT 116) + Cu2+ [4]: >1.7; IC50 [5]: 71.3 ± 4.5 µM; increase of cytotoxicity in the presence of Cu(II) ions versus without copper [5]: more than ten times; SI (MCF-7) + Cu2+ [5]: >2.8; CC50 [6]: > 200 µM
13 | CC(=O)OC[C@H]1O[C@@H](OCCN=[N+]=[N-])[C@H](OC(C)=O)[C@@H](OC(C)=O)[C@H]1OC(C)=O [Compound 10, 2-azidoethyl 2,3,4,6-tetra-O-acetyl-β-D-galactopyranoside] | > 800 µM |  | > 800 µM |  | > 800 µM | 
14 | CC(=O)OC[C@H]1O[C@@H](OCCn2cc(CNc3cccc4cccnc34)nn2)[C@H](OC(C)=O)[C@@H](OC(C)=O)[C@H]1OC(C)=O [Compound 16] | 227 ± 6.3 µM | >2.7 | 227 ± 6.3 µM |  | > 800 µM | IC50 [1, 9]: 290 ± 9.7 µM; IC50 [4]: 70.8 ± 3.9 µM; SI (HCT 116) + Cu2+ [4]: >2.8; IC50 [5]: 31.8 ± 4.9 µM; increase of cytotoxicity in the presence of Cu(II) ions versus without copper [5]: approximately six-fold; SI (MCF-7) + Cu2+ [5]: >6.3; CC50 [6]: > 200 µM
15 | CC(=O)OC[C@H]1O[C@@H](N=[N+]=[N-])[C@H](OC(C)=O)[C@@H](OC(C)=O)[C@@H]1OC(C)=O [Compound 7, 2,3,4,6-tetra-O-acetyl-β-D-glucopyranosyl azide] | > 800 µM |  | > 800 µM |  | > 800 µM | 
16 | OCCn1cc(COc2cccc3cccnc23)nn1 [Compound 19a, reference compound] | > 800 µM |  | > 800 µM |  | > 800 µM | 
17 | C#CCO[C@@H]1O[C@H](COC(C)=O)[C@@H](OC(C)=O)[C@H](OC(C)=O)[C@H]1OC(C)=O [Compound 11, propargyl 2,3,4,6-tetra-O-acetyl-β-D-glucopyranoside] | > 800 µM |  | > 800 µM |  | > 800 µM | 
18 | OCc1cn(CCCNc2cccc3cccnc23)nn1 [Compound 20, 4-Hydroxymethyl-1-(8-quinolinylaminopropyl)-1H-1,2,3-triazol] | 329 ± 5.4 µM | >2.4 | 150 ± 1.8 µM | >5.3 | > 800 µM | 
19 | CC(=O)OC[C@H]1O[C@@H](N=[N+]=[N-])[C@H](OC(C)=O)[C@@H](OC(C)=O)[C@H]1OC(C)=O [Compound 8, 2,3,4,6-tetra-O-acetyl-β-D-galactopyranosyl azide] | > 800 µM |  | > 800 µM |  | > 800 µM | 
20 | Oc1cccc2cccnc12 [Compound 2, 8-hydroxyquinoline, reference compound] |  | 1 |  | 3.1 |  | IC50 ([1]; Homo sapiens, HCT-116, 24 h): 9.33 ± 0.22 µM; IC50 ([2]; MCF7, 72 h): 3.01 ± 0.05 µM; IC50 ([3]; 24 h): 9.34 ± 0.25 µM
21 | [N-]=[N+]=NCCCOc1cccc2cccnc12 [Compound 6, 8-(3-azidopropoxy)quinoline] |  |  |  |  |  | IC50 ([3]; 24 h): 782 ± 8.7 µM
22 | CC(=O)OC[C@H]1O[C@@H](OCCN=[N+]=[N-])[C@H](OC(C)=O)[C@@H](OC(C)=O)[C@@H]1OC(C)=O [Compound 9, 2-azidoethyl 2,3,4,6-tetra-O-acetyl-β-D-glucopyranoside] | > 800 µM |  | > 800 µM |  | > 800 µM | 
23 | CC(=O)OC[C@H]1O[C@@H](n2cc(CNc3cccc4cccnc34)nn2)[C@H](OC(C)=O)[C@@H](OC(C)=O)[C@H]1OC(C)=O [Compound 14] | 282 ± 20.7 µM | >2.8 | 204.2 ± 1.4 µM | >3.9 | > 800 µM | IC50 [4]: 87.1 ± 15.9 µM; IC50 [5]: 34.7 ± 5 µM; increase of cytotoxicity in the presence of Cu(II) ions versus without copper [5]: approximately six-fold; SI (MCF-7) + Cu2+ [5]: >5.8; CC50 [6]: > 200 µM
